These results are taken from patent US6716831B1, “2,4-diamino-pyrimidine deprivatives having anti-cell proliferative activity” (AstraZeneca AB, priority 1999, dated 2004).

The target of this assay is T1, human Focal Adhesion Kinase (FAK) (Homo sapiens, UniProt Q05397).
T1 construct: FAK (full length human cDNA described by Andre et al); 6-histidine tag (N); made in house; host or cells: Sf21 insect cells (baculovirus, pFastbac 1)
Briefly: FAK3 Kinase Inhibition Assay. Conditions: in vitro enzyme assay, Poly (Glu, Ala, Tyr) substrate; read-out: FAK inhibitory activity IC50. Type of assay: biochemical. The source says: FAK3 Kinase Inhibition Assay
This assay determines the ability of a test compound to inhibit tyrosine kinase activity of human Focal Adhesion Kinase (FAK).
DNA encoding FAK is obtained by total gene synthesis (Edwards M, International Biotechnology Lab 5(3), 19-25, 1987) or by cloning. These are then expressed in a suitable expression system to obtain polypeptide with tyrosine kinase activity.
Active FAK protein has been previously expressed in a baculovirus system using a similar N-terminal 6-histidine tag (Protein Expression And Purification, 1996, 7: 12-18). The human FAK cDNA was cloned into the baculovirus transplacement vector, pFastbac 1 (Life Technologies), and the recombinant construct was co-transfected into insect cells (for example Spodoptera frugiperda 21(Sf21)) with viral DNA to prepare recombinant baculovirus (details of the methods for the assembly of recombinant DNA molecules and the preparation and use of recombinant baculovirus can be found in standard texts for example Sambrook et al, 1989, Molecular cloning—A Laboratory Manual, 2nd edition, Cold Spring Harbour Laboratory Press and O'Reilly et al, 1992, Baculovirus Expression Vectors—A Laboratory Manual, W.H. Freeman and Co, New York. Details specific to the use of the pFastbac (‘Bac to Bac’) system are provided in Anderson et al., 1995, FOCUS (Life Technologies Bulletin Magazine), 17, p53.) […]

For orientation: IC50 means the concentration needed to halve the response being measured.

Each structure is given as a SMILES string.

T1 sequence (Q05397 whole entry): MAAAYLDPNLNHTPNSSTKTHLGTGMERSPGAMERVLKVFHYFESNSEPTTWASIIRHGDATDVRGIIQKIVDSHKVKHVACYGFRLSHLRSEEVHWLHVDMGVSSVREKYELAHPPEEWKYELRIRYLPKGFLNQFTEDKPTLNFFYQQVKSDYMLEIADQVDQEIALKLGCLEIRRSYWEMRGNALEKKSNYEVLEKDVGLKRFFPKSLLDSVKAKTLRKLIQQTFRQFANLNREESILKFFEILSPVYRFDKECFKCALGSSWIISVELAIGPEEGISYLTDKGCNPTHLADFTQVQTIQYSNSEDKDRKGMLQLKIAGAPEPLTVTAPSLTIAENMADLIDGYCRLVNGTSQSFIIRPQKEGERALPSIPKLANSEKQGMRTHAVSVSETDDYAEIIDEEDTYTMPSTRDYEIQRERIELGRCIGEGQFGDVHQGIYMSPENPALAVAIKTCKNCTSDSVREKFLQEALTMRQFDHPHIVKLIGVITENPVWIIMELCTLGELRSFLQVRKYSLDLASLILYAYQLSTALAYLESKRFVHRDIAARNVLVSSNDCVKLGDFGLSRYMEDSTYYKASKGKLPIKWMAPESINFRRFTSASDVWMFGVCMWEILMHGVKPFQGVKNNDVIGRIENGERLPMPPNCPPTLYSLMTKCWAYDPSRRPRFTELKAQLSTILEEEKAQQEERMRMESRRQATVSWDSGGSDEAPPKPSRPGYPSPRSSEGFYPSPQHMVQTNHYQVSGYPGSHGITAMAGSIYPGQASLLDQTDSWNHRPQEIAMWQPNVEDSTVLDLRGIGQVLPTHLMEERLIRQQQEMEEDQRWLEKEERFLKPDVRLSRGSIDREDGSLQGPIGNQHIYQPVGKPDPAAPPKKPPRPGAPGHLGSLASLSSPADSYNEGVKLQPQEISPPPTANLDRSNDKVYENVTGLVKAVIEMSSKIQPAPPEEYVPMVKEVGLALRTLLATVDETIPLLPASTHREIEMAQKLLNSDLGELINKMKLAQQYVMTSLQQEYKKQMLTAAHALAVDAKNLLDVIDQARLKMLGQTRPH

In the case of `CN(C)CC(O)COc1ccc(Nc2nccc(N3CCc4cc(Br)ccc43)n2)cc1` (stereo not shown) [Example 3], the half-inhibitory concentration (IC50) came out at 553 nM.
